Calls of active or inactive are those of the source.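 The calls were made as follows: active = growth-inhibition EC50 no more than tenfold above the top tested dose; inconclusive = flat fit between 30% and 70% inhibition, or unreliable fit; inactive = EC50 more than tenfold above the top tested dose.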

This passage reports EC50 results from PubChem BioAssay AID1959 (Broad Institute, 2009).

The subject of the assay is E. coli NEB5alpha growth, BacTiter-Glo luminescence, 4 h. Briefly: Escherichia coli growth inhibition, dose response, counter-screen for MEX-5/POS-1 RNA-binding inhibitor project, luminescence, NEB5alpha (AID 1959;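 also: pUC19-transformed ampicillin-resistant cells grown in LB with ampicillin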). (In general: A counterscreen serves to expose hits that act by an unwanted route or on another target.)
`CCN(CC)C(=O)CSc1nnc2nnc3cc(OC)ccc3n12`: the EC50 was > 11 µM (inactive).
On to `O=C(O)Cn1cc(/C=C2\C(=O)NC(=O)N(c3ccc(F)cc3)C2=O)c2ccccc21`, for which the EC50 was > 11 µM (inactive).
Regarding `N=C1c2ccccc2CN1NC(=O)CC12CC3CC(CC(C3)C1)C2`, the EC50 is > 11 µM (inactive).
For `CC(=O)c1c(C(C)=O)c(C)n(-c2ccc(C(=O)O)cc2)c1C`, the EC50 was > 11 µM (inactive).
Turning to `Cc1c(C(=O)O)cccc1-n1c(C)cc(C=O)c1C`, the EC50 is > 11 µM (inactive).
As to `COCc1cc(=O)n2[nH]c(-c3cccs3)cc2n1`, the EC50 is > 11 µM (inactive).
Turning to `CC1N(C)c2cccc3cccc(c23)N1C`, the EC50 was > 11 µM (inactive).
As to `Cc1ccc(N2C(=O)/C(=C/c3ccc(CN(CCC#N)S(C)(=O)=O)o3)C(=O)NC2=S)cc1`, the EC50 was > 11 µM (inactive).
Take `CCC(C)(C)NC(=O)C(c1cccn1C)N(C(=O)Cn1nnc2ccccc21)c1ccc(OC)cc1` (centres undefined): the EC50 was > 11 µM (inactive).
As for `CCCCN1C(=O)/C(=C/C=C2\Oc3ccccc3N2CC)SC1=S`, the EC50 is > 11 µM (inactive).
For `Cc1cc(/C=N/Nc2ccc([N+](=O)[O-])cn2)c(C)n1-c1ccc(C(=O)O)cc1`, the EC50 was > 11 µM (inactive).
For `CCOC(=O)c1c(-n2c(C)cc(C=C3C(=O)NC(=O)NC3=O)c2C)sc2c1CCCC2`, the EC50 was > 11 µM (inactive).
Then `Oc1ccc2ccccc2c1/C=N/Nc1nnc(-c2ncc[nH]2)c2ccccc12`, with > 11 µM (inactive); and `CC(=O)Oc1cc2cccc(OC(C)=O)c(=O)c2c(OC(C)=O)c1OC(C)=O`, with > 11 µM (inactive); and `CC1=CC(=C2N=C(c3ccccc3)OC2=O)C=C(C)O1`, with > 11 µM (inactive).
The figure for `COc1ccccc1NCC(=O)N/N=C/c1c(O)ccc2ccccc12` is > 11 µM (inactive); for `CCOC(=O)Cn1c(=O)c(-c2cc(Br)ccc2N)nc2ccccc21` it is > 11 µM (inactive).
As for `COc1ccc(OC)c(N=Cc2c(O)c3ccccc3oc2=O)c1`, the EC50 was > 11 µM (inactive).
On to `Cc1cc(O)c(Oc2cc(C)cc(O)c2O)c(O)c1`, for which the EC50 was > 11 µM (inactive).
As to `CCC(=O)OC1(C)C(=O)C=C2C=C(CCCC(=O)OC)OC=C2C1=O` (centres undefined), the EC50 is > 11 µM (inactive).
Then `CN1C=C/C(=C\c2cc[n+](C)c3ccccc23)c2ccccc21`, with > 11 µM (inactive); and `CCN(CC)C(=O)Cn1cc(C(=O)C(=O)N2CCc3ccccc32)c2ccccc21`, with > 11 µM (inactive); and `CN(C)c1cc(-c2ccc([N+](=O)[O-])cc2)oc(=O)c1Cl`, with > 11 µM (inactive).
Consider `O=Cc1c(-c2ccccc2)nc2ccccn12`, for which the EC50 is > 11 µM (inactive).
The figure for `Cc1cc(N2C(=O)C(O)=C(C(=O)c3cc4ccccc4o3)C2c2ccc([N+](=O)[O-])cc2)no1` (centres undefined) is > 11 µM (inactive); for `Cc1nn(C(C)C(=O)N2CCOCC2)c(=O)c2nn(-c3ccccc3)c(C)c12` (centres undefined) it is > 11 µM (inactive).
Take `NC1=CC(=O)c2cccc3cccc1c23`: the EC50 was > 11 µM (inactive).
Take `COc1ccc(/C=C/C(=O)c2c(C)cc(C)[nH]c2=O)c2ccccc12`: the EC50 is > 11 µM (inactive).
`Cc1ccc2nc(-c3ccc(O)c(O)c3)cn2c1`: the EC50 was > 11 µM (inactive).
For `CN1C(=O)/C(=C/C=C/c2ccco2)C(=O)NC1=S`, the EC50 is > 11 µM (inactive).
As to `CCOC(=O)Cn1c2ccc(OC)cc2c2nc3ccccc3nc21`, the EC50 was > 11 µM (inactive).
Then `O=C(Nc1cc(=O)[nH]c2ncnn12)c1ccc(Cl)cc1Cl`, with > 11 µM (inactive); and `N#Cc1ccccc1CN1C(=O)S/C(=C/c2cccn2-c2cccc(C(=O)O)c2)C1=O`, with > 11 µM (inactive); and `O=C(O)CCN1C(=O)/C(=C/c2ccc(-c3nc4ccccc4s3)o2)SC1=S`, with > 11 µM (inactive).
`COc1cc2c(cc1OC)-c1c(OC)c(OC)c(OC)c3ccnc(c13)C2=O`: the EC50 was > 11 µM (inactive).
As to `CC(=NCc1ccc2c(c1)OCO2)c1c(O)n(-c2ccccc2)c(=O)[nH]c1=O`, the EC50 is > 11 µM (inactive).
Consider `COc1ccc(C2=CC3=C(Br)C(=O)C(C)(OC(=O)c4cccs4)C(=O)C3=CO2)cc1` (centres undefined), for which the EC50 is > 11 µM (inactive).
The figure for `Cc1ccc(C(=O)N/C(=C\c2ccc(-c3ccccc3[N+](=O)[O-])o2)C(=O)NCCCN(C)C)cc1` is > 11 µM (inactive); for `COC(=O)C1=C(C)N(c2ccc(Cl)cc2)/C(=C/c2cccs2)C1=O` it is > 11 µM (inactive); for `CC1CN(C2CC(C)(C)NC(C)(C)C2)CCC1=O` (centres undefined) it is > 11 µM (inactive).
The figure for `C[C@H]1c2cccc(O)c2C(O)=C2C(=O)[C@]3(O)C(O)=C(C(N)=O)C(=O)[C@@H](N(C)C)C3[C@@H](O)C21` (some centres undefined) is 4.58 µM; for `Cc1ccc(NC(=S)c2ccc3ccccc3n2)c(C)c1` it is > 11 µM (inactive); for `COc1cc2c3nnc(-c4ccc(F)cc4)c-3cn(Cc3ccc(C)cc3)c2cc1OC` it is > 11 µM (inactive).
With `CCOc1ccc(-n2c(O)c(C=Nc3ccc(N(CC)CC)cc3)c(=O)[nH]c2=O)cc1`, the EC50 is > 11 µM (inactive).
As to `Cc1[nH]nc(NNC(=O)c2ccccc2)c1[N+](=O)[O-]`, the EC50 was > 11 µM (inactive).
Take `c1ccc(-c2cn3nc(-c4ccccc4)c(-c4ccccc4)nc3n2)cc1`: the EC50 was > 11 µM (inactive).
In the case of `CCOC(=O)N1CCN(C(=O)c2ccc3c(c2)NC(=O)/C(=C\c2ccc(OC)c(OC)c2)S3)CC1`, the EC50 is > 11 µM (inactive).
Turning to `CSc1nnc(N2C(=O)C(O)=C(C(=O)c3ccco3)C2c2cccc(Cl)c2)s1` (centres undefined), the EC50 was > 11 µM (inactive).
The figure for `CN(C)Cc1cc(O)c(CN(C)C)cc1O` is > 11 µM (inactive); for `Cc1cc(C)cc(-n2c(O)c(C=Nc3ccc(N4CCOCC4)cc3)c(=O)[nH]c2=S)c1` it is > 11 µM (inactive).
Regarding `CCOC(=O)c1cc(C(=O)OCC)cc(-n2c(C)cc(C(=O)CN3CCOCC3)c2C)c1`, the EC50 is > 11 µM (inactive).
Turning to `CCN1C=CC2=C(C#N)C(N)C(C#N)(C#N)C(c3ccccc3C(F)(F)F)C2C1` (centres undefined), the EC50 was > 11 µM (inactive).
Turning to `N#Cc1c(NC(=O)/C=C/C(=O)O)sc2c1CCN(Cc1ccccc1)C2`, the EC50 was > 11 µM (inactive).
Turning to `O=C(O)c1ccc2c(c1)[C@@H]1C=CC[C@@H]1[C@H](c1ccccn1)N2`, the EC50 was > 11 µM (inactive).
With `O=S(=O)(c1ccccc1)N1CCC(O)(CSc2ccc(Cl)cc2)CC1`, the EC50 is > 11 µM (inactive).
Regarding `CCN1CCN(Cc2c(O)ccc3c2O/C(=C\c2ccc(C)cc2)C3=O)CC1`, the EC50 was > 11 µM (inactive).
With `Cc1ccc2oc(=O)c(/C=C(\O)CC(C)C)nc2c1`, the EC50 is > 11 µM (inactive).
Consider `O=c1c(O)cccc2cc(O)c(O)c(O)c12`, for which the EC50 was > 11 µM (inactive).
Take `COC(=O)c1ccccc1-n1c(CCC(=O)O)ccc1-c1ccccc1`: the EC50 is > 11 µM (inactive).
Take `CC(C)(C)c1ccc(C(=O)Nc2cccc3ncccc23)cc1`: the EC50 is > 11 µM (inactive).
The figure for `COC(=O)c1cc(-n2cccc2)ccc1N1CCOCC1` is > 11 µM (inactive).
Regarding `COc1cc(/C=N/Nc2nc(=O)[nH]nc2C)cc([N+](=O)[O-])c1O`, the EC50 was > 11 µM (inactive).
`CCN(CC)S(=O)(=O)c1ccc(N=Cc2c(C)c(C#N)c(=O)n(C)c2O)cc1`: the EC50 was > 11 µM (inactive).
Then `O=C(COC(=O)CCc1c[nH]c(=O)[nH]1)Nc1ccccc1Cl`, with > 11 µM (inactive); and `CN1CCc2cc(O)cc3c2[C@H]1Cc1ccc(O)c(O)c1-3`, with > 11 µM (inactive).
As to `O=C(c1ccc(Br)s1)N1CCN(c2ccccn2)CC1`, the EC50 is > 11 µM (inactive).
On to `COc1ccc(NC(=O)CN2CCC(NC(=O)C3CCCCC3)CC2)c([N+](=O)[O-])c1`, for which the EC50 was > 11 µM (inactive).
Consider `CN=C1S/C(=C\c2ccc(O)c(OC)c2)C(=O)N1C`, for which the EC50 was > 11 µM (inactive).
On to `COC(=O)c1ccc(COc2ccc(/C=C(\C#N)c3nc4ccccc4[nH]3)cc2OC)o1`, for which the EC50 was > 11 µM (inactive).
As to `N=c1c(C(=O)NCc2ccc(F)cc2)cc2c(=O)n3ccccc3nc2n1Cc1cccnc1`, the EC50 was > 11 µM (inactive).
Regarding `O=C(NCCOc1ccccc1)C1Nc2ccc(OC(F)(F)F)cc2C2C=CCC12` (centres undefined), the EC50 is > 11 µM (inactive).
`Cc1cc(=O)nc2c3ccccc3n(CC(=O)Nc3ccccc3Br)n12`: the EC50 was > 11 µM (inactive).
In the case of `COc1ccc(Nc2nc3ccccc3nc2NS(=O)(=O)c2cccs2)c(OC)c1`, the EC50 is > 11 µM (inactive).
For the compound `C=CCOc1ccc(C2OC34CCCCC3C(C#N)(C#N)C2(C#N)C(=N)O4)cc1` (centres undefined), the EC50 was > 11 µM (inactive).
As for `Cc1c(N=Cc2c(O)n(Cc3ccccc3)c(=O)[nH]c2=O)c(=O)n(-c2ccccc2)n1C`, the EC50 is > 11 µM (inactive).
The figure for `Cc1nn(C)c(C)c1CN(C)C(=O)C1c2ccccc2Oc2ccccc21` is > 11 µM (inactive); for `COc1ccccc1Nc1nc2nonc2nc1N1CCCCC1C` (centres undefined) it is > 11 µM (inactive); for `Cn1nc(C(F)(F)F)cc1-c1ccc(/C=C(\C#N)C(=O)c2ccccc2)s1` it is > 11 µM (inactive).
For the compound `COc1ccc(C(=O)Nc2nnc(CC(=O)N/N=C/c3ccc(O)cc3O)s2)cc1`, the EC50 is > 11 µM (inactive).
As to `Oc1c(C=Nc2ccccc2Cl)[nH]c2ccccc12`, the EC50 was > 11 µM (inactive).
With `O=C(Cn1cncn1)N/N=C/c1c2ccccc2cc2ccccc12`, the EC50 is > 11 µM (inactive).
For `Nc1nc(Sc2ccc([N+](=O)[O-])cc2[N+](=O)[O-])n[nH]1`, the EC50 was > 11 µM (inactive).
`C=CCN1C=C2C(=O)C(C)(OC(=O)CCC(=O)OC)C(=O)C(Br)=C2C=C1c1ccc(OC)cc1` (centres undefined): the EC50 is > 11 µM (inactive).
Take `O=c1[nH]c2c(s1)C=Nc1ccccc1N2`: the EC50 was > 11 µM (inactive).

A word on the EC50: it is the concentration giving half of the maximal effect.
